Reference: PubChem BioAssay (NCI)
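Where inhibition never reached the appropriate level, the endpoint shown equals the highest concentration tested. Otherwise, values were interpolated linearly from a five-concentration, 48-hour dose response in 96-well plates. TGI: total growth inhibition.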

Legend:
Assay in all cases: NCI tumour cell line growth inhibition, 48 h
PC-3 prostate = test system: PC-3 prostate
MOLT-4 leukemia = test system: MOLT-4 leukemia
DU-145 prostate = test system: DU-145 prostate
NCI-H226 lung = test system: NCI-H226 lung
M14 melanoma = test system: M14 melanoma
MALME-3M melanoma = test system: MALME-3M melanoma
COLO 205 colon = test system: COLO 205 colon
SK-MEL-5 melanoma = test system: SK-MEL-5 melanoma
HL-60(TB) leukemia = test system: HL-60(TB) leukemia
SNB-75 CNS = test system: SNB-75 CNS
SR leukemia = test system: SR leukemia
MDA-MB-435 = test system: MDA-MB-435
CCRF-CEM leukemia = test system: CCRF-CEM leukemia
MDA-N = test system: MDA-N
NCI-H522 lung = test system: NCI-H522 lung
HCT-116 colon = test system: HCT-116 colon
UO-31 renal = test system: UO-31 renal
OVCAR-3 ovarian = test system: OVCAR-3 ovarian
KM12 colon = test system: KM12 colon
UACC-62 melanoma = test system: UACC-62 melanoma
OVCAR-5 ovarian = test system: OVCAR-5 ovarian
MCF7 breast = test system: MCF7 breast
NCI-H460 lung = test system: NCI-H460 lung
SN12C renal = test system: SN12C renal
RPMI-8226 leukemia = test system: RPMI-8226 leukemia
SK-MEL-28 melanoma = test system: SK-MEL-28 melanoma
K-562 leukemia = test system: K-562 leukemia
BT-549 breast = test system: BT-549 breast
SK-OV-3 ovarian = test system: SK-OV-3 ovarian
HS 578T breast = test system: HS 578T breast
IGROV1 ovarian = test system: IGROV1 ovarian
SK-MEL-2 melanoma = test system: SK-MEL-2 melanoma
HOP-62 NSCLC = test system: HOP-62 NSCLC
T-47D breast = test system: T-47D breast
HCT-15 colon = test system: HCT-15 colon
A498 renal = test system: A498 renal
SF-295 CNS = test system: SF-295 CNS
OVCAR-8 ovarian = test system: OVCAR-8 ovarian
HOP-92 NSCLC = test system: HOP-92 NSCLC
U251 CNS = test system: U251 CNS
MDA-MB-231 breast = test system: MDA-MB-231 breast
HT29 colon = test system: HT29 colon
NCI/ADR-RES ovarian = test system: NCI/ADR-RES ovarian
NCI-H23 lung = test system: NCI-H23 lung
RXF 393 renal = test system: RXF 393 renal
CAKI-1 renal = test system: CAKI-1 renal
SNB-19 CNS = test system: SNB-19 CNS
HCC-2998 colon = test system: HCC-2998 colon
SF-268 CNS = test system: SF-268 CNS
SW-620 colon = test system: SW-620 colon
LOX IMVI melanoma = test system: LOX IMVI melanoma
UACC-257 melanoma = test system: UACC-257 melanoma
OVCAR-4 ovarian = test system: OVCAR-4 ovarian
786-0 renal = test system: 786-0 renal
A549 NSCLC = test system: A549 NSCLC
TK-10 renal = test system: TK-10 renal
SF-539 CNS = test system: SF-539 CNS
EKVX NSCLC = test system: EKVX NSCLC
ACHN renal = test system: ACHN renal

CN(C)C(=S)/N=C1\SC(=Nc2ccccc2)C(=Nc2ccccc2)N1c1ccc([N+](=O)[O-])cc1
TGI (PC-3 prostate): > 100 µM
TGI (MOLT-4 leukemia): > 100 µM
TGI (DU-145 prostate): > 100 µM
TGI (NCI-H226 lung): > 100 µM
TGI (M14 melanoma): > 100 µM
TGI (MALME-3M melanoma): > 100 µM
TGI (COLO 205 colon): > 100 µM
TGI (SK-MEL-5 melanoma): > 100 µM
TGI (HL-60(TB) leukemia): > 100 µM
TGI (SNB-75 CNS): > 100 µM
TGI (SR leukemia): > 100 µM
TGI (MDA-MB-435): > 100 µM
TGI (CCRF-CEM leukemia): > 100 µM
TGI (MDA-N): > 100 µM
TGI (NCI-H522 lung): > 100 µM
TGI (HCT-116 colon): > 100 µM
TGI (UO-31 renal): > 100 µM
TGI (OVCAR-3 ovarian): > 100 µM
TGI (KM12 colon): > 100 µM
TGI (UACC-62 melanoma): > 100 µM
TGI (OVCAR-5 ovarian): > 100 µM
TGI (MCF7 breast): > 100 µM
TGI (NCI-H460 lung): > 100 µM
TGI (SN12C renal): > 100 µM
TGI (RPMI-8226 leukemia): > 100 µM
TGI (SK-MEL-28 melanoma): > 100 µM
TGI (K-562 leukemia): > 100 µM
TGI (BT-549 breast): > 100 µM
TGI (SK-OV-3 ovarian): > 100 µM
TGI (HS 578T breast): > 100 µM
TGI (IGROV1 ovarian): > 100 µM
TGI (SK-MEL-2 melanoma): > 100 µM
TGI (HOP-62 NSCLC): > 100 µM
TGI (T-47D breast): > 100 µM
TGI (HCT-15 colon): > 100 µM
TGI (A498 renal): > 100 µM
TGI (SF-295 CNS): > 100 µM
TGI (OVCAR-8 ovarian): > 100 µM
TGI (HOP-92 NSCLC): > 100 µM
TGI (U251 CNS): > 100 µM
TGI (MDA-MB-231 breast): > 100 µM
TGI (HT29 colon): > 100 µM
TGI (NCI/ADR-RES ovarian): > 100 µM
TGI (NCI-H23 lung): > 100 µM
TGI (RXF 393 renal): > 100 µM
TGI (CAKI-1 renal): > 100 µM
TGI (SNB-19 CNS): > 100 µM
TGI (HCC-2998 colon): > 100 µM

CCn1c2ccccc2c2nnc(NCCCO)nc21
TGI (PC-3 prostate): > 100 µM
TGI (MOLT-4 leukemia): > 100 µM
TGI (SF-268 CNS): > 100 µM
TGI (DU-145 prostate): > 100 µM
TGI (NCI-H226 lung): > 100 µM
TGI (SW-620 colon): > 100 µM
TGI (LOX IMVI melanoma): > 100 µM
TGI (M14 melanoma): > 100 µM
TGI (MALME-3M melanoma): > 100 µM
TGI (COLO 205 colon): > 100 µM
TGI (SK-MEL-5 melanoma): > 100 µM
TGI (UACC-257 melanoma): > 100 µM
TGI (HL-60(TB) leukemia): > 100 µM
TGI (SNB-75 CNS): > 100 µM
TGI (SR leukemia): > 100 µM
TGI (MDA-MB-435): > 100 µM
TGI (CCRF-CEM leukemia): > 100 µM
TGI (MDA-N): > 100 µM
TGI (NCI-H522 lung): > 100 µM
TGI (HCT-116 colon): > 100 µM
TGI (OVCAR-3 ovarian): > 100 µM
TGI (KM12 colon): > 100 µM
TGI (OVCAR-4 ovarian): > 100 µM
TGI (786-0 renal): > 100 µM
TGI (UACC-62 melanoma): > 100 µM
TGI (OVCAR-5 ovarian): > 100 µM
TGI (MCF7 breast): > 100 µM
TGI (NCI-H460 lung): > 100 µM
TGI (SN12C renal): > 100 µM
TGI (RPMI-8226 leukemia): > 100 µM
TGI (SK-MEL-28 melanoma): > 100 µM
TGI (K-562 leukemia): > 100 µM
TGI (BT-549 breast): > 100 µM
TGI (SK-OV-3 ovarian): > 100 µM
TGI (A549 NSCLC): > 100 µM
TGI (HS 578T breast): > 100 µM
TGI (TK-10 renal): > 100 µM
TGI (SF-539 CNS): > 100 µM
TGI (IGROV1 ovarian): > 100 µM
TGI (SK-MEL-2 melanoma): > 100 µM
TGI (HOP-62 NSCLC): > 100 µM
TGI (T-47D breast): > 100 µM
TGI (HCT-15 colon): > 100 µM
TGI (A498 renal): > 100 µM
TGI (SF-295 CNS): > 100 µM
TGI (OVCAR-8 ovarian): > 100 µM
TGI (HOP-92 NSCLC): > 100 µM
TGI (U251 CNS): > 100 µM
TGI (MDA-MB-231 breast): > 100 µM
TGI (HT29 colon): > 100 µM
TGI (EKVX NSCLC): > 100 µM
TGI (NCI/ADR-RES ovarian): > 100 µM
TGI (NCI-H23 lung): > 100 µM
TGI (RXF 393 renal): > 100 µM
TGI (CAKI-1 renal): > 100 µM
TGI (SNB-19 CNS): > 100 µM
TGI (ACHN renal): > 100 µM

CCCCCCCC/C=C(\Br)C(O)C(Br)Br (stereo not given)
TGI (PC-3 prostate): > 100 µM
TGI (MOLT-4 leukemia): > 100 µM
TGI (SF-268 CNS): 53.1 µM
TGI (DU-145 prostate): > 100 µM
TGI (SW-620 colon): 34.2 µM
TGI (LOX IMVI melanoma): 41.2 µM
TGI (M14 melanoma): 48.5 µM
TGI (MALME-3M melanoma): 43 µM
TGI (COLO 205 colon): 41 µM
TGI (SK-MEL-5 melanoma): 34 µM
TGI (UACC-257 melanoma): 76.1 µM
TGI (SNB-75 CNS): > 100 µM
TGI (SR leukemia): > 100 µM
TGI (MDA-MB-435): 59.1 µM
TGI (CCRF-CEM leukemia): 35.5 µM
TGI (MDA-N): 54.1 µM
TGI (NCI-H522 lung): 38.4 µM
TGI (HCT-116 colon): > 100 µM
TGI (UO-31 renal): 38.8 µM
TGI (OVCAR-3 ovarian): 34.8 µM
TGI (KM12 colon): 59.6 µM
TGI (OVCAR-4 ovarian): 85.9 µM
TGI (786-0 renal): 39.7 µM
TGI (UACC-62 melanoma): 41.6 µM
TGI (OVCAR-5 ovarian): 43.6 µM
TGI (MCF7 breast): 98.3 µM
TGI (NCI-H460 lung): 86.8 µM
TGI (SN12C renal): 36.6 µM
TGI (RPMI-8226 leukemia): > 100 µM
TGI (SK-MEL-28 melanoma): > 100 µM
TGI (K-562 leukemia): > 100 µM
TGI (BT-549 breast): 44.8 µM
TGI (SK-OV-3 ovarian): 90.6 µM
TGI (A549 NSCLC): > 100 µM
TGI (HS 578T breast): 74.7 µM
TGI (TK-10 renal): > 100 µM
TGI (IGROV1 ovarian): 59.1 µM
TGI (SK-MEL-2 melanoma): 63.7 µM
TGI (HOP-62 NSCLC): 47.6 µM
TGI (T-47D breast): > 100 µM
TGI (HCT-15 colon): 47.2 µM
TGI (A498 renal): 68.1 µM
TGI (SF-295 CNS): 41.5 µM
TGI (OVCAR-8 ovarian): 49.5 µM
TGI (HOP-92 NSCLC): 42.9 µM
TGI (U251 CNS): > 100 µM
TGI (MDA-MB-231 breast): > 100 µM
TGI (EKVX NSCLC): 92.9 µM
TGI (NCI/ADR-RES ovarian): 57.2 µM
TGI (NCI-H23 lung): 47.7 µM
TGI (RXF 393 renal): 37.8 µM
TGI (CAKI-1 renal): 63.7 µM
TGI (SNB-19 CNS): > 100 µM
TGI (ACHN renal): 51.9 µM
TGI (HCC-2998 colon): 48 µM
